This is an account of results in patent US20240059685A1, “PIEZO1 AGONISTS FOR THE PROMOTION OF BONE FORMATION” (BIOVENTURES, LLC, priority 2019, published 2024).

SMILES strings stand for the structures.

Series [1] has as its system C57BL/6J mice. The series is described as follows: In vivo bone mass evaluation by μCT and body weight after 2 weeks of administration. The note with it: 4-month-old female C57BL/6J mice, 5 μmol/kg intraperitoneally, 5 days per week for 2 weeks. The procedure:
(§1) To quantify cancellous bone formation, we injected mice with calcein (20 mg/kg body weight) intraperitoneally 7 and 3 days before harvest. To quantify periosteal and endocortical bone formation, we injected mice with calcein (20 mg/kg body weight) and Alizarin Red (20 mg/kg body weight) 10 and 3 days before harvest. For gene expression, we injected Yoda1 into 4-month-old female C57BL/6J mice one time and harvested tibiae 4 hours later for RNA extraction. For bone mass evaluation, we injected Yoda1 into 4-month-old female C57BL/6J mice 5 consecutive days per week for 2 weeks (day 1-5 and day 8-12) and harvested the mice at day 15 for analysis. Yoda1 (Sigma, St. Louis, MO) was dissolved in DMSO at 40 mM as a stock, diluted in 5% ethanol, and injected intraperitoneally at 5 μmol/kg body weight. Mice were rank-ordered by body weight and then assigned to Veh or Yoda1 groups to give identical group means. All investigators involved in data collection were blinded as to the genotype and group of the mice.
Skeletal analysis. Tibial X-rays were obtained using an UltraFocus X-ray machine (Faxitron Bioptics, Tucson, Arizona) and BMD of the lumbar spine and femur were measured by dual-energy X-ray absorptiometry using a PIXImus Densitometer (GE-Lunar Corp.) Three dimensional bone volume and architecture of L4 vertebra, femur, and tibia were measured by μCT (model μCT40, Scanco Medical, Wayne, PA). The femur, vertebrae (L4), or tibia, were cleaned of soft tissues and fixed in 10% Millonig's formalin for 24 hours. Bone were then gradually dehydrated into 100% ethanol. Bone samples were loaded into a 12.3 mm diameter scanning tube and images acquired in the μCT40. The scans were integrated into 3D voxel images (1024×1024 pixel matrices for each individual planar stack) and a Gaussian filter (sigma=0.8, support=1) was used to reduce signal noise. Scanco Eval Program v.6.0 was used for measuring bone volume. A threshold of 220 mg/cm^3 was applied to all scans at medium resolution (E=55 kVp, I=145 μA, integration time=200 ms) for trabecular bone measurements. The cortical bone and the primary spongiosa were manually excluded from the analysis. Trabecular bone measurements at the distal femur were made on 151 slices beginning 8-10 slices away from the growth plate and proceeding proximally. […] All trabecular measurements were made by drawing contours every 10 to 20 slices and voxel counting was used for bone volume per tissue volume and sphere filling distance transformation indices, without pre-assumptions about the bone shape as a rod or plate for trabecular microarchitecture. Femoral cortical thickness, periosteal circumference, and endocortical circumference were measured at the mid-diaphysis. For tibial cortical thickness, we analyzed 18 slices 5 mm proximal from the distal tibiofibular junction. Vertebral cortical bone thickness was determined on the ventral cortical wall using contours of cross-sectional images, drawn to exclude trabecular bone. Cortical analysis were measured at a threshold of 260 mg/cm^3. Calibration and quality control were performed weekly using five density standards and spatial resolution was verified monthly using a tungsten wire rod. We based beam-hardening correction on the calibration records. Corrections for 200 mg hydroxyapatite were made for all energies.

For series [2], the system named is C57BL/6J mice. The series is described as follows: Serum osteocalcin and CTX ELISA after 2 weeks of administration. The following applies: 4-month-old female C57BL/6J mice, 5 μmol/kg intraperitoneally, 5 days per week for 2 weeks. It counts as in vivo. As for the experimental part:
as §1
Osteocalcin and CTX ELISA. Circulating osteocalcin and CTX in serum was measured using a mouse Osteocalcin enzyme immunoassay kit (Thermo Fisher) and RatLaps™ (CTX-I) EIA kit (Immunodiagnostic Systems, Boldon, UK) respectively according to the manual provided by manufacturers. Blood was collected by retro-orbital bleeding into 1.7 mL microcentrifuge tubes. […]

On to `Clc1cccc(Cl)c1CSc1nnc(-c2cnccn2)s1` [Yoda1], for which, in series [1], the body weight entry is “did not alter”, the “cancellous bone mass in the distal femur” value is “increased”, the “cancellous bone volume in vertebrae” value is “did not detect changes” and the “cortical thickness in the distal femur” value is “increased”. In series [1], the “cortical thickness in the vertebra” value is recorded as “increased”. Further, in series [2], the “serum levels of CTX, a bone resorption marker” value is reported as “did not observe changes” and the “serum levels of osteocalcin, a bone formation marker” value is reported as “increased”.
